Measured values from patent publication US11826351B2, “Compounds useful as kinase inhibitors” (Loxo Oncology, Inc., priority 2015, dated 2023).
pIC50: −log10 of the molar value. Read-outs that look alike come from different tables or passages of the source.

What was measured:
[1] = test system: OCI-Ly10 human DLBCL cells; test: OCI-Ly10 anti-proliferative activity (Resazurin); type: cell-based; settings: read-out: Proliferation Assay OCI-Ly10-20% FBS
Procedure, shortened: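 OCI-Ly10 human DLBCL cells, whose growth depends on NFκB signalling, were seeded at 7.5×10^3 cells per well in 96-well plates with a range of compound concentrations and kept at 37° C for 72 h. Resazurin was then added, and after 5 h fluorescence was read at 590 nm.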

[2] = biological target: T1, Recombinant BTK^C481S kinase (Homo sapiens, UniProt Q06187, C481S); test: BTK C481S binding affinity (LanthaScreen TR-FRET); settings: Kinase Tracer 236, 5 h incubation
T1 construct: purchased SignalChem
T1 sequence (Q06187 whole entry C481S): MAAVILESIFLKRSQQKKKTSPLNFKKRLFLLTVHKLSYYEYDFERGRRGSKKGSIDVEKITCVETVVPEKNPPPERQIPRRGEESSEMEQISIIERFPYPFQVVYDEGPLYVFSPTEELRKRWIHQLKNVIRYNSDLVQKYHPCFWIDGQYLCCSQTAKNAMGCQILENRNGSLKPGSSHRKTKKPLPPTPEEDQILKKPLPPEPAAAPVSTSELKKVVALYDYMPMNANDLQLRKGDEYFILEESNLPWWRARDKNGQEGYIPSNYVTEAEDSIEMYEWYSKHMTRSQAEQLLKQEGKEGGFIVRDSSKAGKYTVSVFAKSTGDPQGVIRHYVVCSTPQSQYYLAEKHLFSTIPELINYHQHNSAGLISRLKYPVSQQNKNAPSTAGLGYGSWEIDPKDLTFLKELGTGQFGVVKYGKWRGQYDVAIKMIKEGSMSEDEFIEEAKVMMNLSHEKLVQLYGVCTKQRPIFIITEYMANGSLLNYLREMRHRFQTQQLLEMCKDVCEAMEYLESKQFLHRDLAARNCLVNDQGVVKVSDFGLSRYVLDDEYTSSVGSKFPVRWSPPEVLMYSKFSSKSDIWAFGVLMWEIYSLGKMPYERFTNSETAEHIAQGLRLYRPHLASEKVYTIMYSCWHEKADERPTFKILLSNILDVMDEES
Procedure, shortened: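 BTK C481S tracer-displacement TR-FRET: 5 nM His-tagged kinase, 2 nM Eu anti-His antibody and 30 nM Kinase Tracer 236 incubated with titrated inhibitor for 5 h in Kinase Buffer A. Read at 340 nm excitation, 615/665 nm emission; IC50 from variable-slope log[inhibitor]–response fit.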

[3] = biological target: T2, Recombinant EGFR (Homo sapiens, UniProt P00533); test: EGFR binding affinity (LanthaScreen TR-FRET); settings: Kinase Tracer 199, 5 h incubation
T2 construct: purchased Invitrogen
T2 sequence (P00533 25-1210): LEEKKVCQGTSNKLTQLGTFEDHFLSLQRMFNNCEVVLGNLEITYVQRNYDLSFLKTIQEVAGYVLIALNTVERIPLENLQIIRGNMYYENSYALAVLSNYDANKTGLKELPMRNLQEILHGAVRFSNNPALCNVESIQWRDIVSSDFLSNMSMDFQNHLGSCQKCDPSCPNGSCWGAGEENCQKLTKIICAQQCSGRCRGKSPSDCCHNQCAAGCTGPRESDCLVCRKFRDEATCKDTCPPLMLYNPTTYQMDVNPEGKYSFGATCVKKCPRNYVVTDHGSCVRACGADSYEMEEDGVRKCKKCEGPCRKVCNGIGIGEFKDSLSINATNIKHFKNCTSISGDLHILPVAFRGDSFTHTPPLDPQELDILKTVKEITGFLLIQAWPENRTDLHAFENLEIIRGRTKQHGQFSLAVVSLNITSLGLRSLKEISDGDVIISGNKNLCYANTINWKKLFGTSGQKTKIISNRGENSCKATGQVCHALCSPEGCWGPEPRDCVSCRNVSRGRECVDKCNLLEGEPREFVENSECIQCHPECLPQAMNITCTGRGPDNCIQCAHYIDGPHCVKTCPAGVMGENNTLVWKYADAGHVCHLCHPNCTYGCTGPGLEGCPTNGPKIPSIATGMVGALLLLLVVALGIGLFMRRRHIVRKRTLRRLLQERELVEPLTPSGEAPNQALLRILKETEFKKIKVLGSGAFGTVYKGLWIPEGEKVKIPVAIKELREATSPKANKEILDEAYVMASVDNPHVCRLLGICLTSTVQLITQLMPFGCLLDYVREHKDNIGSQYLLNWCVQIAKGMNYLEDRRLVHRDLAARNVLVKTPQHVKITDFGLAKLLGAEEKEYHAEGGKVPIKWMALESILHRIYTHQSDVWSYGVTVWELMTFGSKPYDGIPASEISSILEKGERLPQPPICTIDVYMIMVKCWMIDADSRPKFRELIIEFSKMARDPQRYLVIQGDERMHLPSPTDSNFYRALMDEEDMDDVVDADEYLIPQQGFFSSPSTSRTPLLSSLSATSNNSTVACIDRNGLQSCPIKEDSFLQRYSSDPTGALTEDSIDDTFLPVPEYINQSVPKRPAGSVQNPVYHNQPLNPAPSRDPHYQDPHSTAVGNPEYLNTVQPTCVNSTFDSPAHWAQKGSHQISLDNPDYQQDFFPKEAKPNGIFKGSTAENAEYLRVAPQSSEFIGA
Procedure, shortened: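 TR-FRET binding (LanthaScreen) with recombinant EGFR; signal measured across a compound concentration range. IC50 obtained by fitting RFU against log[inhibitor] to a variable-slope model.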

[4] = biological target: T3, Recombinant BTK^WT kinase (Homo sapiens, UniProt Q06187); test: BTK WT binding affinity (LanthaScreen TR-FRET); settings: Kinase Tracer 236, 5 h incubation
T3 construct: purchased Invitrogen
T3 sequence (Q06187 whole entry): as the sequence (Q06187 whole entry C481S) above, with S481C counted along it
Procedure, shortened: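 Tracer-displacement TR-FRET: 2.5 nM recombinant BTK^WT, 2 nM Eu anti-His antibody and 15 nM Kinase Tracer 236 incubated with varying inhibitor concentrations for 5 h in Kinase Buffer A. Signal read at 340 nm excitation, 615/665 nm emission; IC50 from variable-slope log[inhibitor]–response fit.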

[5] = Homo sapiens, OCI-Ly10, 72 h, OCI-Ly10 cells, 72 h compound treatment, Resazurin
[6] = OCI-Ly10 cells, 72 h compound treatment, Resazurin

Row | pIC50 [1, 5] | pIC50 [2] | pIC50 [3] | pIC50 [4] | pIC50 [1, 6] | Compound | pIC50 ([1]; Homo sapiens, OCI-Ly10, 72 h)
1 | 7.00 to 8.00 | > 8.00 | 6.00 to 7.00 | > 8.00 | – | COc1ccccc1C(=O)NCc1ccc(-c2nn(C3CCCC3)c(N)c2C(N)=O)cc1C [Example 62, 5-amino-1-cyclopentyl-3-[4-[[(2-methoxybenzoyl)amino]methyl]-3-methyl-phenyl]pyrazole-4-carboxamide] | –
2 | 7.00 to 8.00 | > 8.00 | 5.00 to 6.00 | > 8.00 | – | COc1ccc(F)cc1C(=O)NCc1ccc(-c2nn([C@H]3CCOC3)c(N)c2C(N)=O)cc1 [Example 162, 5-amino-3-[4-[[(5-fluoro-2-methoxy-benzoyl)amino]methyl]phenyl]-1-[(3S)-tetrahydrofuran-3-yl]pyrazole-4-carboxamide] | –
3 | 7.00 to 8.00 | > 8.00 | 5.00 to 6.00 | > 8.00 | – | COc1ccc(F)cc1C(=O)NCc1ccc(-c2nn(C3CCNCC3(F)F)c(N)c2C(N)=O)cc1 (centres unmarked) [Example 186, 5-amino-1-(3,3-difluoro-4-piperidyl)-3-[4-[[(5-fluoro-2-methoxy-benzoyl)amino]methyl]phenyl]pyrazole-4-carboxamide] | –
4 | 7.00 to 8.00 | > 8.00 | 5.00 to 6.00 | > 8.00 | – | COc1ccc(F)cc1C(=O)NCc1ccc(-c2nn(CC(F)(F)F)c(N)c2C(N)=O)cc1 [Example 122, 5-amino-3-[4-[[(5-fluoro-2-methoxy-benzoyl)amino]methyl]phenyl]-1-(2,2,2-trifluoroethyl)pyrazole-4-carboxamide] | –
5 | – | > 8.00 | 5.00 to 6.00 | > 8.00 | > 8.00 | COc1ccc(F)cc1C(=O)NCc1ccc(-c2nn([C@H](C)C(F)(F)F)c(N)c2C(N)=O)cc1 (single isomer, unassigned) [Example 163a, 5-amino-3-[4-[[(5-fluoro-2-methoxy-benzoyl)amino]methyl]phenyl]-1-(2,2,2-trifluoro-1-methyl-ethyl)pyrazole-4-carboxamide] | –
6 | 7.00 to 8.00 | > 8.00 | < 5.00 | > 8.00 | – | COc1ccc(C)cc1C(=O)NCc1ccc(-c2nn(C3CCCC3)c(N)c2C(N)=O)cc1F [Example 92, 5-amino-1-cyclopentyl-3-[3-fluoro-4-[[(2-methoxy-5-methyl-benzoyl)amino]methyl]phenyl]pyrazole-4-carboxamide] | –
7 | 7.00 to 8.00 | > 8.00 | 5.00 to 6.00 | > 8.00 | – | COc1ccc(F)cc1C(=O)NCc1ccc(-c2nn(C(C)(C)C(F)(F)F)c(N)c2C(N)=O)cc1 [Example 189, 5-amino-3-[4-[[(5-fluoro-2-methoxy-benzoyl)amino]methyl]phenyl]-1-(2,2,2-trifluoro-1,1-dimethyl-ethyl)pyrazole-4-carboxamide] | –
8 | 5.00 to 6.00 | 7.00 to 8.00 | 5.00 to 6.00 | 7.00 to 8.00 | – | COc1ccccc1C(=O)NCc1ccc(-c2nn(C3CCOCC3(C)C)c(N)c2C(N)=O)cc1 (centres unmarked) [Example 89, 5-amino-1-(3,3-dimethyltetrahydropyran-4-yl)-3-[4-[[(2-methoxybenzoyl)amino]methyl]phenyl]pyrazole-4-carboxamide] | –

Second part, the compound before the results:

Row | Compound | pIC50 [1, 5] | pIC50 [2] | pIC50 [3] | pIC50 [4] | pIC50 [1, 6] | pIC50 ([1]; Homo sapiens, OCI-Ly10, 72 h)
9 | COc1ccccc1C(=O)NCc1ccc(-c2nn(C3CC(O)c4ccccc43)c(N)c2C(N)=O)cc1 (centres unmarked) [Example 63, 5-amino-1-(3-hydroxyindan-1-yl)-3-[4-[[(2-methoxybenzoyl)amino]methyl]phenyl]pyrazole-4-carboxamide] | 7.00 to 8.00 | > 8.00 | 6.00 to 7.00 | > 8.00 | – | –
10 | COc1ccccc1C(=O)NCc1ccc(-c2nn(C3CCOCC3)c(N)c2C(N)=O)cc1F [Example 116, 5-amino-3-[3-fluoro-4-[[(2-methoxybenzoyl)amino]methyl]phenyl]-1-tetrahydropyran-4-yl-pyrazole-4-carboxamide] | 6.00 to 7.00 | > 8.00 | 5.00 to 6.00 | 7.00 to 8.00 | – | –
11 | COc1ccccc1C(=O)NCc1ccc(-c2nn(-c3ccc(CO)cc3)c(N)c2C(N)=O)cc1 [Example 49, 5-amino-1-[4-(hydroxymethyl)phenyl]-3-[4-[[(2-methoxybenzoyl)amino]methyl]phenyl]pyrazole-4-carboxamide] | 7.00 to 8.00 | > 8.00 | 6.00 to 7.00 | > 8.00 | – | –
12 | COc1ccccc1C(=O)NCc1ccc(-c2nn(-c3cc(F)ccc3F)c(N)c2C(N)=O)cc1 [Example 61, 5-amino-1-(2,5-difluorophenyl)-3-[4-[[(2-methoxybenzoyl)amino]methyl]phenyl]pyrazole-4-carboxamide] | 7.00 to 8.00 | > 8.00 | 6.00 to 7.00 | > 8.00 | – | –
13 | COc1ccc(F)cc1C(=O)NCc1cc(F)c(-c2nn(C(C)C(F)(F)F)c(N)c2C(N)=O)cc1F (centres unmarked) [Example 168, 5-amino-3-[2,5-difluoro-4-[[(5-fluoro-2-methoxy-benzoyl)amino]methyl]phenyl]-1-(2,2,2-trifluoro-1-methyl-ethyl)pyrazole-4-carboxamide] | – | > 8.00 | 5.00 to 6.00 | 7.00 to 8.00 | – | 7.00 to 8.00
14 | COc1ccccc1C(=O)NCc1ccc(-c2nn(C3CCOCC3)c(C(F)F)c2C(N)=O)cc1 [Example 108, 5-(difluoromethyl)-3-[4-[[(2-methoxybenzoyl)amino]methyl]phenyl]-1-tetrahydropyran-4-yl-pyrazole-4-carboxamide] | 5.00 to 6.00 | 7.00 to 8.00 | < 5.00 | 7.00 to 8.00 | – | –
15 | COc1ccccc1C(=O)NCc1ccc(-c2nn(C3CCCC3)c(N)c2C(N)=O)c(C)c1 [Example 101, 5-amino-1-cyclopentyl-3-[4-[[(2-methoxybenzoyl)amino]methyl]-2-methyl-phenyl]pyrazole-4-carboxamide] | 6.00 to 7.00 | > 8.00 | < 5.00 | 7.00 to 8.00 | – | –
16 | COc1ccccc1C(=O)NCc1ccc(-c2nn(-c3ccccc3C)c(N)c2C(N)=O)cc1 [Example 47, 5-amino-3-[4-[[(2-methoxybenzoyl)amino]methyl]phenyl]-1-(o-tolyl)pyrazole-4-carboxamide] | 6.00 to 7.00 | > 8.00 | 5.00 to 6.00 | 7.00 to 8.00 | – | –
17 | COc1ccccc1C(=O)NCc1ccc(-c2nn(C(C)C)c(N)c2C(N)=O)cc1 [Example 19, 5-amino-1-isopropyl-3-[4-[[(2-methoxybenzoyl)amino]methyl]phenyl]pyrazole-4-carboxamide] | 7.00 to 8.00 | > 8.00 | 6.00 to 7.00 | > 8.00 | – | –
18 | COc1ccccc1C(=O)NCc1ccc(-c2nn(C3CCOCC3F)c(N)c2C(N)=O)cc1 (single isomer, unassigned) [Example 95, 5-amino-1-[3-fluorotetrahydropyran-4-yl]-3-[4-[[(2-methoxybenzoyl)amino]methyl]phenyl]pyrazole-4-carboxamide] | – | > 8.00 | 5.00 to 6.00 | 7.00 to 8.00 | 6.00 to 7.00 | –
19 | COc1ccc(F)cc1C(=O)NCc1ccc(-c2nn(CCC(F)(F)F)c(N)c2C(N)=O)cc1 [Example 174, 5-amino-3-[4-[[(5-fluoro-2-methoxy-benzoyl)amino]methyl]phenyl]-1-(3,3,3-trifluoropropyl)pyrazole-4-carboxamide] | 7.00 to 8.00 | > 8.00 | 5.00 to 6.00 | > 8.00 | – | –
20 | COc1ccc(F)cc1C(=O)NCc1c(F)cc(-c2nn(C3CCCC3)c(N)c2C(N)=O)cc1F [Example 139, 5-amino-1-cyclopentyl-3-[3,5-difluoro-4-[[(5-fluoro-2-methoxy-benzoyl)amino]methyl]phenyl]pyrazole-4-carboxamide] | 6.00 to 7.00 | > 8.00 | < 5.00 | 7.00 to 8.00 | – | –
21 | COc1ccccc1C(=O)NCc1ccc(-c2nn(C3CCC(O)(C(F)(F)F)CC3)c(N)c2C(N)=O)cc1 (centres unmarked) [Example 65, 5-amino-1-[4-hydroxy-4-(trifluoromethyl)cyclohexyl]-3-[4-[[(2-methoxybenzoyl)amino]methyl]phenyl]pyrazole-4-carboxamide] | 7.00 to 8.00 | > 8.00 | 6.00 to 7.00 | > 8.00 | – | –
22 | COc1ccc(F)cc1C(=O)NCc1ccc(-c2nn(C3CCCC3)c(N)c2C(N)=O)c(F)c1 [Example 136, 5-amino-1-cyclopentyl-3-[2-fluoro-4-[[(5-fluoro-2-methoxy-benzoyl)amino]methyl]phenyl]pyrazole-4-carboxamide] | 7.00 to 8.00 | > 8.00 | 5.00 to 6.00 | > 8.00 | – | –
23 | COc1ccccc1C(=O)NCc1ccc(-c2nn([C@H]3CCOC3)c(N)c2C(N)=O)cc1 [Example 83a, 5-amino-3-[4-[[(2-methoxybenzoyl)amino]methyl]phenyl]-1-[(3S)-tetrahydrofuran-3-yl]pyrazole-4-carboxamide] | 6.00 to 7.00 | > 8.00 | 5.00 to 6.00 | > 8.00 | – | –
